ChEMBL document CHEMBL6127087 (Eur J Med Chem, 2024)
Active and inactive are the calls of the source. The rule behind the calls is not given here.

Legend:
P2Y purinoceptor 6 = P2Y purinoceptor 6 (Homo sapiens, UniProt Q15077); experiment: Antagonist activity at human P2Y6R expressed in CHO cells assessed as inhibition of UDP sodium salt-induced Ca2+ level by FLIPR calcium 6 assay; type: functional, cell-based
Mus musculus [1] = experiment: Anti-inflammatory activity in LPS-induced male C57BL/6 mouse model of acute […] injury assessed as reduction in IL-1beta level in BALF at 2 mg/kg, IG preadministered with compound for 7 days followed by LPS administration and measured after 24 hrs by ELISA; type: functional, organism-based; settings: time 8.0 day
Mus musculus [2] = experiment: Anti-inflammatory activity in LPS-induced male C57BL/6 mouse model of acute […] injury assessed as reduction in IL-6 level in BALF at 2 mg/kg, IG preadministered with compound for 7 days followed by LPS administration and measured after 24 hrs by ELISA; type: functional, organism-based; settings: time 8.0 day
Mus musculus [3] = experiment: Anti-inflammatory activity in LPS-induced male C57BL/6 mouse model of acute […] injury assessed as reduction in TNF-alpha level in BALF at 2 mg/kg, IG preadministered with compound for 7 days followed by LPS administration and measured after 24 hrs by ELISA; type: functional, organism-based; settings: time 8.0 day
Mus musculus [4] = experiment: Anti-inflammatory activity in LPS-induced male C57BL/6 mouse model of acute […] injury assessed as reduction in infiltration of immune cells by measuring decrease in WBC count at 2 mg/kg, IG preadministered with compound for 7 days followed by LPS administration and measured after 24 hrs; type: functional, organism-based; settings: time 8.0 day
Mus musculus [5] = experiment: Anti-inflammatory activity in LPS-induced male C57BL/6 mouse model of acute […] injury assessed as reduction in infiltration of immune cells by measuring decrease in neutrophil count at 2 mg/kg, IG preadministered with compound for 7 days followed by LPS administration and measured after 24 hrs; type: functional, organism-based; settings: time 8.0 day
Mus musculus [6] = experiment: Anti-inflammatory activity in LPS-induced male C57BL/6 mouse model of acute […] injury assessed as reduction in infiltration of immune cells by measuring decrease in lymphocytes count at 2 mg/kg, IG preadministered with compound for 7 days followed by LPS administration and measured after 24 hrs; type: functional, organism-based; settings: time 8.0 day
Mus musculus [7] = experiment: Anti-inflammatory activity in LPS-induced male C57BL/6 mouse model of acute […] injury assessed as reduction in infiltration of immune cells by measuring decrease in monocytes count at 2 mg/kg, IG preadministered with compound for 7 days followed by LPS administration and measured after 24 hrs; type: functional, organism-based; settings: time 8.0 day
Mus musculus [8] = experiment: Anti-inflammatory activity in LPS-induced male C57BL/6 mouse model of acute […] injury assessed as reduction in alveolar septa thickening in lung at 2 mg/kg, IG preadministered with compound for 7 days followed by LPS administration and measured after 24 hrs by H and E staining based histopathological analysis; type: functional, organism-based; settings: time 8.0 day
Mus musculus [9] = experiment: Anti-inflammatory activity in LPS-induced male C57BL/6 mouse model of acute […] injury assessed as reduction in tissue destruction in lung at 2 mg/kg, IG preadministered with compound for 7 days followed by LPS administration and measured after 24 hrs by H and E staining based histopathological analysis; type: functional, organism-based; settings: time 8.0 day
Mus musculus [10] = experiment: Anti-inflammatory activity in LPS-induced male C57BL/6 mouse model of acute […] injury assessed as reduction in interstitial edema in lung at 2 mg/kg, IG preadministered with compound for 7 days followed by LPS administration and measured after 24 hrs by H and E staining based histopathological analysis; type: functional, organism-based; settings: time 8.0 day
Mus musculus [11] = experiment: Anti-inflammatory activity in LPS-induced male C57BL/6 mouse model of acute […] injury assessed as reduction in inflammatory infiltration in lung at 2 mg/kg, IG preadministered with compound for 7 days followed by LPS administration and measured after 24 hrs by H and E staining based histopathological analysis; type: functional, organism-based; settings: time 8.0 day
Mus musculus [12] = experiment: Anti-inflammatory activity in LPS-induced male C57BL/6 mouse model of acute […] injury assessed as absence of lesion in lung parenchyma at 2 mg/kg, IG preadministered with compound for 7 days followed by LPS administration and measured after 24 hrs by H and E staining based histopathological analysis; type: functional, organism-based; settings: time 8.0 day
Mus musculus [13] = experiment: Anti-inflammatory activity in LPS-induced male C57BL/6 mouse model of acute […] injury assessed as intact appearance of alveolar structure in lung at 2 mg/kg, IG preadministered with compound for 7 days followed by LPS administration and measured after 24 hrs by H and E staining based histopathological analysis; type: functional, organism-based; settings: time 8.0 day
Mus musculus [14] = experiment: Anti-inflammatory activity in LPS-induced male C57BL/6 mouse model of acute […] injury assessed as reduction in hyperemia of pulmonary alveolar septa in lung at 2 mg/kg, IG preadministered with compound for 7 days followed by LPS administration and measured after 24 hrs by H and E staining based histopathological analysis; type: functional, organism-based; settings: time 8.0 day
[15] = Cmax in male Sprague-Dawley rat at 10 mg/kg, iv measured after 24 hrs by LC-MS/MS analysis; type: ADME, organism-based; settings: in vivo, iv, 10 mg/kg, 24 h
[16] = Half-life in male Sprague-Dawley rat at 10 mg/kg, iv measured after 24 hrs by LC-MS/MS analysis; type: ADME, organism-based; settings: in vivo, iv, 10 mg/kg, 24 h
[17] = Tmax in male Sprague-Dawley rat at 10 mg/kg, iv measured after 24 hrs by LC-MS/MS analysis; type: ADME, organism-based; settings: in vivo, iv, 10 mg/kg, 24 h
[18] = AUC (0 to 24 hrs) in male Sprague-Dawley rat at 10 mg/kg, iv measured after 24 hrs by LC-MS/MS analysis; type: ADME, organism-based; settings: in vivo
[19] = Clearance in male Sprague-Dawley rat at 10 mg/kg, iv measured after 24 hrs by LC-MS/MS analysis; type: ADME, organism-based; settings: in vivo
[20] = Cmax in male Sprague-Dawley rat at 20 mg/kg, po measured after 24 hrs by LC-MS/MS analysis; type: ADME, organism-based; settings: in vivo, po, 20 mg/kg, 24 h
[21] = Half-life in male Sprague-Dawley rat at 20 mg/kg, po measured after 24 hrs by LC-MS/MS analysis; type: ADME, organism-based; settings: in vivo, po, 20 mg/kg, 24 h
[22] = Tmax in male Sprague-Dawley rat at 20 mg/kg, po measured after 24 hrs by LC-MS/MS analysis; type: ADME, organism-based; settings: in vivo, po, 20 mg/kg, 24 h
[23] = AUC (0 to 24 hrs) in male Sprague-Dawley rat at 20 mg/kg, po measured after 24 hrs by LC-MS/MS analysis; type: ADME, organism-based; settings: in vivo, po, 20 mg/kg, 24 h
[24] = Clearance in male Sprague-Dawley rat at 20 mg/kg, po measured after 24 hrs by LC-MS/MS analysis; type: ADME, organism-based; settings: in vivo
[25] = Oral bioavailability in male Sprague-Dawley rat at 20 mg/kg measured after 24 hrs by LC-MS/MS analysis; type: ADME, organism-based; settings: in vivo, po, 20 mg/kg, 24 h
P2Y purinoceptor 12 = P2Y purinoceptor 12 (Homo sapiens, UniProt Q9H244); experiment: Antagonist activity at human P2Y12R stably expressed in HEK293 cells assessed as inhibition of MeSADP-induced cAMP accumulation preincubated with compound for 30 mins followed by MeSADP addition by cAMP-GloTM assay; type: functional, cell-based
P2Y purinoceptor 12, sequence (Q9H244 whole entry): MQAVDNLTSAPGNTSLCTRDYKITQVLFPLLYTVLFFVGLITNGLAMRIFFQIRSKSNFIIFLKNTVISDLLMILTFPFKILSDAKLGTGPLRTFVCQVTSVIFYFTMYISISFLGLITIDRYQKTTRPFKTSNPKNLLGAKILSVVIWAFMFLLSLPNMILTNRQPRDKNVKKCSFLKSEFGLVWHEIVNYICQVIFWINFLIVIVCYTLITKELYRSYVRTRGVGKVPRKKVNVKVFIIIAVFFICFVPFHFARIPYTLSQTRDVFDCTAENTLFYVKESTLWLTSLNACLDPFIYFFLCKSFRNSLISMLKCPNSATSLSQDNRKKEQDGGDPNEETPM

P2Y purinoceptor 4 = P2Y purinoceptor 4 (Homo sapiens, UniProt P51582); experiment: Antagonist activity at human P2Y4R stably expressed in HEK293 cells assessed as inhibition of UTP-induced IP3 accumulation preincubated with compound for 30 mins followed by UTP addition by ELISA
P2Y purinoceptor 4, sequence (P51582 whole entry): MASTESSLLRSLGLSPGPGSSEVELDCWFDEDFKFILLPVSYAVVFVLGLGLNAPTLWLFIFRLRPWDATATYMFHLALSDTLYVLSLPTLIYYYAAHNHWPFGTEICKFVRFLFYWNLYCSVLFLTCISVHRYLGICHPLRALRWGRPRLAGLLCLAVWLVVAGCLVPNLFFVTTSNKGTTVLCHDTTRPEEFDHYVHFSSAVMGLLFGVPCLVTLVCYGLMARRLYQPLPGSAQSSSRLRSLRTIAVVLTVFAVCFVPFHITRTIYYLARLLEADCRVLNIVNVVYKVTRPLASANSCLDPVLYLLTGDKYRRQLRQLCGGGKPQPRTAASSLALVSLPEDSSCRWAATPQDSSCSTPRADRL

P2Y purinoceptor 6, sequence (Q15077 whole entry): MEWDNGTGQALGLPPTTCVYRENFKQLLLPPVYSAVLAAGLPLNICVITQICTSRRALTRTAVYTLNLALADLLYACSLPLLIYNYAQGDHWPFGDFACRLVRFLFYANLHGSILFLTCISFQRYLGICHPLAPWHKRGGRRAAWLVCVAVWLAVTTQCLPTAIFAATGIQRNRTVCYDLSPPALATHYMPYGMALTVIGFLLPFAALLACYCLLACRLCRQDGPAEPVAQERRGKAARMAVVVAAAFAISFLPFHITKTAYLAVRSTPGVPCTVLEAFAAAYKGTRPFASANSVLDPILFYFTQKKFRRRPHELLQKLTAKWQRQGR

Row | SMILES | IC50 (P2Y purinoceptor 6) [µM] | further results
1 | Cc1ccc2cc(C3CC(c4ccc(O)cc4)=NN3C(=O)CCC(=O)O)c(Cl)nc2c1 (stereo unspecified) | > 0.5 | 
2 | Cc1cccc2cc(C3CC(c4ccco4)=NN3C(=O)CCC(=O)O)c(Cl)nc12 (stereo unspecified) | 0.0346 | 
3 | C[C@@H]1C[C@H]2[C@@H]3CCC4=CC(=O)C=C[C@]4(C)[C@@]3(F)[C@@H](O)C[C@]2(C)[C@@]1(O)C(=O)CO |  | Activity (Mus musculus [1]): Active; Activity (Mus musculus [2]): Active; Activity (Mus musculus [3]): Active; Activity (Mus musculus [4]): Active; Activity (Mus musculus [5]): Active; Activity (Mus musculus [6]): Active; Activity (Mus musculus [7]): Active; Activity (Mus musculus [8]): Active; Activity (Mus musculus [9]): Active; Activity (Mus musculus [10]): Active; Activity (Mus musculus [11]): Active; Activity (Mus musculus [12]): Active; Activity (Mus musculus [13]): Active; Activity (Mus musculus [14]): Active
4 | Cc1ccc2cc(C3CC(c4ccco4)=NN3C(=O)CCCC(=O)O)c(Cl)nc2c1 (stereo unspecified) | > 0.5 | 
5 | Cc1ccc2cc(C3CC(c4ccc(-c5ccccc5)cc4)=NN3C(=O)CCC(=O)O)c(Cl)nc2c1 (stereo unspecified) | 0.168 | Cmax [15]: 0.864 µg/mL; t1/2 [16]: 6 min; Tmax [17]: 9 min; AUC [18]: 1.854 µg·h/mL; clearance [19]: 0.81 L/h/kg; Cmax [20]: 1.211 µg/mL; t1/2 [21]: 12 min; Tmax [22]: 14 min; AUC [23]: 2.356 µg·h/mL; CL/F [24]: 1.21 L/h/kg; F [25]: 16%
6 | Cc1ccc2cc(C3CC(c4ccccc4)=NN3C(=O)CCC(=O)O)c(Cl)nc2c1 (stereo unspecified) | 0.0546 | 
7 | Cc1ccc2nc(Cl)c(C3CC(c4ccco4)=NN3C(=O)CCC(=O)O)cc2c1 (stereo unspecified) | 0.0528 | 
8 | Cc1cccc(C2=NN(C(=O)CCC(=O)O)C(c3cc4ccc(C)cc4nc3Cl)C2)c1 (stereo unspecified) | 0.125 | 
9 | O=C(O)CCC(=O)N1N=C(c2ccccc2)CC1c1cc2ccc(F)cc2nc1Cl (stereo unspecified) | 0.187 | 
10 | O=C(O)/C=C\C(=O)N1N=C(c2ccc[nH]2)CC1c1cnc2ccccc2c1 (stereo unspecified) | 0.386 | 
11 | Cc1ccc2nc(Cl)c(C3CC(c4ccccc4)=NN3C(=O)CCC(=O)O)cc2c1 (stereo unspecified) | 0.106 | 
12 | O=C(O)CCC(=O)N1N=C(c2ccco2)CC1c1cc2ccccc2nc1Cl (stereo unspecified) | 0.186 | 
13 | O=C(O)CCC(=O)N1N=C(c2ccc[nH]2)CC1c1cc2ccc(F)cc2nc1Cl (stereo unspecified) | 0.421 | 
14 | O=C(O)CCC(=O)N1N=C(c2ccccc2)CC1c1cnc2ccccc2c1 (stereo unspecified) | 0.0398 | 
15 | Cc1ccc2cc(C3CC(c4ccc[nH]4)=NN3C(=O)CCC(=O)O)c(Cl)nc2c1 (stereo unspecified) | 0.0296 | 
16 | O=C(O)CCC(=O)N1N=C(c2ccccc2)CC1c1cc2ccccc2nc1Cl (stereo unspecified) | 0.274 | 
17 | Cc1ccc2cc(C3CC(c4cccnc4)=NN3C(=O)CCC(=O)O)c(Cl)nc2c1 (stereo unspecified) | 0.279 | 
18 | Cc1ccc2cc(C3CC(c4ccco4)=NN3C(=O)CCC(=O)O)c(Cl)nc2c1 (stereo unspecified) | 0.0265 | 
19 | Cc1ccc2nc(Cl)c(C3CC(c4ccc[nH]4)=NN3C(=O)CCC(=O)O)cc2c1 (stereo unspecified) | 0.0668 | 

Row | SMILES | IC50 (P2Y purinoceptor 6) [µM] | further results
20 | CCCSc1nc(N[C@@H]2C[C@H]2c2ccc(F)c(F)c2)c2nnn([C@@H]3C[C@H](OCCO)[C@@H](O)[C@H]3O)c2n1 [TICAGRELOR] |  | IC50 (P2Y purinoceptor 12): 1.22 µM
21 | Cc1cccc2cc(C3CC(c4ccc[nH]4)=NN3C(=O)CCC(=O)O)c(Cl)nc12 (stereo unspecified) | 0.0537 | 
22 | COc1ccc(C2=NN(C(=O)CCC(=O)O)C(c3cc4ccc(C)cc4nc3Cl)C2)cc1 (stereo unspecified) | 0.106 | 
23 | Cc1ccc2cc(C3CC(c4ccc5ccccc5c4)=NN3C(=O)CCC(=O)O)c(Cl)nc2c1 (stereo unspecified) | > 0.5 | 
24 | O=C(C1CC1)N1CCc2cc(Br)c(S(=O)(=O)Nc3ccc(Cl)c(C(F)(F)F)c3)cc21 |  | IC50 (P2Y purinoceptor 4): 12.5 µM
25 | Cc1ccc2cc(C3CC(c4ccco4)=NN3C(=O)C=CC(=O)O)c(Cl)nc2c1 (stereo unspecified) | 0.291 | 
26 | Cc1ccc2cc(C3CC(c4ccc(C(C)(C)C)cc4)=NN3C(=O)CCC(=O)O)c(Cl)nc2c1 (stereo unspecified) | 0.0694 | 
27 | Cc1cccc2cc(C3CC(c4ccccc4)=NN3C(=O)CCC(=O)O)c(Cl)nc12 (stereo unspecified) | 0.0415 | 
28 | Cc1ccc(C2=NN(C(=O)CCC(=O)O)C(c3cc4ccc(C)cc4nc3Cl)C2)cc1 (stereo unspecified) | 0.0846 | 
29 | Cc1ccc2cc(C3CC(c4cccc(C(F)(F)F)c4)=NN3C(=O)CCC(=O)O)c(Cl)nc2c1 (stereo unspecified) | > 0.5 | 
30 | Cc1ccc2cc(C3CC(c4c[nH]c5ccccc45)=NN3C(=O)CCC(=O)O)c(Cl)nc2c1 (stereo unspecified) | 0.148 | 
31 | O=C(O)CCC(=O)N1N=C(c2ccco2)CC1c1cc2ccc(F)cc2nc1Cl (stereo unspecified) | 0.21 | 
32 | O=C(O)CCC(=O)N1N=C(c2ccc[nH]2)CC1c1cc2ccccc2nc1Cl (stereo unspecified) | 0.249 | 
33 | O=C(O)CCCC(=O)N1N=C(c2ccc[nH]2)CC1c1cnc2ccccc2c1 (stereo unspecified) | 0.2 | 
34 | O=C(O)CCC(=O)N1N=C(c2ccco2)CC1c1cnc2ccccc2c1 (stereo unspecified) | 0.0267 | 
35 | Cc1ccc2cc(C3CC(c4ccccc4F)=NN3C(=O)CCC(=O)O)c(Cl)nc2c1 (stereo unspecified) | > 0.5 | 
36 | Cc1ccc2cc(C3CC(c4cccs4)=NN3C(=O)CCC(=O)O)c(Cl)nc2c1 (stereo unspecified) | 0.324 | 
37 | COc1cccc(C2=NN(C(=O)CCC(=O)O)C(c3cc4ccc(C)cc4nc3Cl)C2)c1 (stereo unspecified) | 0.0775 | 
